{"source": "patent US4552889A", "about": "“3-Mercaptomethyl-2-oxo-1-pyrrolidine acetic acids and use for hypertension” (Eli Lilly and Company, priority 1983, dated 1985)", "target": "T1, Angiotensin Converting Enzyme (Oryctolagus cuniculus, UniProt P12822)", "T1 construct": "The enzyme was isolated from rabbit lung and purified via calcium phosphate gel; from tissue; host or cells: rabbit lung", "T1 sequence (P12822 34-1310)": "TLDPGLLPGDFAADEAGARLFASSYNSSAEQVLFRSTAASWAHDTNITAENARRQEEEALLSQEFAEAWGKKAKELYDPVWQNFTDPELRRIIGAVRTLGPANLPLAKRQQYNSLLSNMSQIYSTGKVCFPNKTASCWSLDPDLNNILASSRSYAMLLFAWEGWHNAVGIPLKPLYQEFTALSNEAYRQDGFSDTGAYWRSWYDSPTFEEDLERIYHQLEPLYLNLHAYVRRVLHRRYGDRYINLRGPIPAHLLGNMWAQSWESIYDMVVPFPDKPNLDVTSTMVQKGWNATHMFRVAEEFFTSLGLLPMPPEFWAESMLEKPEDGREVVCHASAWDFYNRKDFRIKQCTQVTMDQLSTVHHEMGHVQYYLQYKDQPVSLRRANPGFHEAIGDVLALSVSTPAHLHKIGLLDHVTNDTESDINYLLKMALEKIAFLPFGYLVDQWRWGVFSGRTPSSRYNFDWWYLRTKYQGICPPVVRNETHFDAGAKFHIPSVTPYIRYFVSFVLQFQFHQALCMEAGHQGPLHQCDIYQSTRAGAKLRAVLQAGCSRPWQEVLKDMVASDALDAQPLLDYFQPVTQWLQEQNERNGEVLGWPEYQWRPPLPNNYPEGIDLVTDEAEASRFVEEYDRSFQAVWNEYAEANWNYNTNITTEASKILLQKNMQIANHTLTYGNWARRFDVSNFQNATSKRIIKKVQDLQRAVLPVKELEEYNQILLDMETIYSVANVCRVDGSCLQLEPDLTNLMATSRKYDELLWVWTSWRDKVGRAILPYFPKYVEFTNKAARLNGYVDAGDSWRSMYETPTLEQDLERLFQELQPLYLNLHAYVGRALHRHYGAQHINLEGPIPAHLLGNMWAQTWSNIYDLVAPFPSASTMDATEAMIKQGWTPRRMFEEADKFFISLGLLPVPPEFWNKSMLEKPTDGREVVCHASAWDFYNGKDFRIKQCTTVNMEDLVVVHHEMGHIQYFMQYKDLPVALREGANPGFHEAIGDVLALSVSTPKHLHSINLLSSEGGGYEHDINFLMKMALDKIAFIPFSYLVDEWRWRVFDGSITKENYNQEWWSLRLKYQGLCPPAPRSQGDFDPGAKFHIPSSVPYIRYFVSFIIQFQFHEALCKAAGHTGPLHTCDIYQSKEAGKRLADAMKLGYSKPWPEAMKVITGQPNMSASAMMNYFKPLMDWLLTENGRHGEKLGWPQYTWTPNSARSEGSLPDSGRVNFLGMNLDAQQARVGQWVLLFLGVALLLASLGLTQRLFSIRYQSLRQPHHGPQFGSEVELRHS", "assay": "Inhibition of Angiotensin Converting Enzyme (fluorometric histidylleucine release from angiotensin I)", "format": "biochemical", "conditions": "enzyme from rabbit lung; human angiotensin I substrate; pH 7.5; 30 minutes at 37° C; inhibitor range 10^-4 to 10^-9 M; read-out: Concentration giving 50% Inhibition of Conversion of Angiotensin I to Angiotensin II", "from_the_text": "The compounds are useful in the treatment of hypertension and congestive heart failure by virtue of their ability to inhibit angiotensin converting enzyme. […] Certain compounds of the present invention were examined as to their ability to inhibit angiotensin converting enzyme in the following test system.\nASSAY OF INHIBITORS OF ANGIOTENSIN CONVERTING ENZYME\nThe procedure for the assay of angiotensin I converting enzyme activity was essentially that described by Cheung and Cushman, Biochemica et Biophysica Acta, 293, 451-463 (1973). The enzyme was isolated from rabbit lung and purified via calcium phosphate gel, and DEAE-cellulose column chromatography. Human angiotensin I was employed as the substrate. The assay is dependent on the fluorometric measurement of the rate of release of the dipeptide histidylleucine from the substrate by the enzyme when the released dipeptide is reacted with o-phthalicdicarboxaldehyde. A standard curve is prepared with known quantities of histidylleucine.\nIncubations were conducted at 37° C. in 13×100 mm. test tubes containing a final volume of 250 μl. The conditions of the assay employed were as follows: 100 μl. of 0.3 mM angiotensin I dissolved in saline-phosphate buffer (30 mM NaCl, 100 mM potassium phosphate, pH 7.5) and 50 μl. of saline-phosphate buffer (or test compound dissolved in the buffer) were allowed to stand at least three minutes at ambient temperature. The enzymic reaction was initiated by adding 100 μl. of enzyme solution containing 25 to 50 μg. protein/ml., determined by the Lowry method. The tubes were incubated for 30 minutes at 37° C. The reaction was terminated by adding 1.45 ml. of 300 mM NaOH followed with 100 μl. of 0.2 percent o-phthalicdicarboxaldehyde in methanol. After ten minutes, 200 μl. of 3M HCl were added. The final volume in the tubes was 2 ml. Fluorometric determinations (365 nm excitation and 500 nm emission) were made after 30 minutes but within 90 minutes after termination of the reaction.\nThe concentration of the inhibitors were adjusted so that a range of concentrations of 10^-4 to 10^-9 M was obtained in the reaction tubes. Inhibition was measured by the decrease in activity from that of control tubes without inhibitor. Activity was recorded as the molar concentration of inhibitor producing a 50 percent decrease in converting enzyme activity relative to the controls and is summarized in Table I.", "data": [{"smiles": "C[C@@H](C(=O)O)N1CC[C@@](CS)(Cc2ccccc2)C1=O", "note": "[Example 4, (S,S)-3-(mercaptomethyl)-α-methyl-2-oxo-3-benzyl-1-pyrrolidine-acetic acid]", "values": [{"measurement": "IC50", "value": "> 100000", "unit": "nM"}]}, {"smiles": "C[C@@H](C(=O)O)N1CC[C@](CS)(Cc2ccccc2)C1=O", "note": "[Example 3, (αS,3R)-3-(mercaptomethyl)-α-methyl-2-oxo-3-benzyl-1-pyrrolidineacetic acid]", "values": [{"measurement": "IC50", "value": 5000, "unit": "nM"}]}, {"smiles": "CCC1(CS)CCN([C@@H](C)C(=O)O)C1=O", "note": "(stereo partly drawn) [Example 2, (αS)-3-ethyl-3-(mercaptomethyl)-α-methyl-2-oxo-1-pyrrolidineacetic acid]", "values": [{"measurement": "IC50", "value": 2000, "unit": "nM"}]}, {"smiles": "C[C@@H](C(=O)O)N1CCC(C)(CS)C1=O", "note": "(stereo partly drawn) [Example 1, (αS)-3-(mercaptomethyl)-α,3-dimethyl-2-oxo-1-pyrrolidineacetic acid]", "values": [{"measurement": "IC50", "value": 1000, "unit": "nM"}]}]}
